Test results: publication PMC10761680 (Scientific Reports, 2024)
Where two headings read alike, the source gives them in different places. Each block holds one compound with its values, some of them ahead of it.

Tests used:
human soluble ENPP1 [1] = conditions: substrate p-Nph-5′-TMP, Colorimetry (p-nitrophenol), cited from earlier work; for Ki: pH 9.0; for IC50: read-out: IC50 (shown in the Ki column)
human soluble ENPP1 [2] = target: human soluble ENPP1; set-up: method as in earlier work; conditions: substrate ATP, Colorimetry (Molybdenum-phosphate complex), pH 9.0; cited from earlier work
human soluble ENPP1 [3] = conditions: substrate ATP, Capillary Electrophoresis, pH 9.0; cited from earlier work
human soluble ENPP1 [4] = conditions: substrate cGAMP, Bioluminescence (Enzyme-coupling), cited from earlier work
human ENPP1 [5] = target: T1, human ENPP1 (Homo sapiens, UniProt P22413); test: Fluorescent screening of ENPP1 inhibitors using ATP as substrate and Kyoto Green as reporter; assay type: biochemical; set-up: purchased R&D systems (Minneapolis, USA); conditions: 2 μM ATP, 11.5 nM ENPP1, 20 min, pH 7.4; for ENPP1 inhibition in Kyoto Green screening (in words): 10 μM or maximum soluble concentration
T1 sequence (P22413 98-925 limits assumed): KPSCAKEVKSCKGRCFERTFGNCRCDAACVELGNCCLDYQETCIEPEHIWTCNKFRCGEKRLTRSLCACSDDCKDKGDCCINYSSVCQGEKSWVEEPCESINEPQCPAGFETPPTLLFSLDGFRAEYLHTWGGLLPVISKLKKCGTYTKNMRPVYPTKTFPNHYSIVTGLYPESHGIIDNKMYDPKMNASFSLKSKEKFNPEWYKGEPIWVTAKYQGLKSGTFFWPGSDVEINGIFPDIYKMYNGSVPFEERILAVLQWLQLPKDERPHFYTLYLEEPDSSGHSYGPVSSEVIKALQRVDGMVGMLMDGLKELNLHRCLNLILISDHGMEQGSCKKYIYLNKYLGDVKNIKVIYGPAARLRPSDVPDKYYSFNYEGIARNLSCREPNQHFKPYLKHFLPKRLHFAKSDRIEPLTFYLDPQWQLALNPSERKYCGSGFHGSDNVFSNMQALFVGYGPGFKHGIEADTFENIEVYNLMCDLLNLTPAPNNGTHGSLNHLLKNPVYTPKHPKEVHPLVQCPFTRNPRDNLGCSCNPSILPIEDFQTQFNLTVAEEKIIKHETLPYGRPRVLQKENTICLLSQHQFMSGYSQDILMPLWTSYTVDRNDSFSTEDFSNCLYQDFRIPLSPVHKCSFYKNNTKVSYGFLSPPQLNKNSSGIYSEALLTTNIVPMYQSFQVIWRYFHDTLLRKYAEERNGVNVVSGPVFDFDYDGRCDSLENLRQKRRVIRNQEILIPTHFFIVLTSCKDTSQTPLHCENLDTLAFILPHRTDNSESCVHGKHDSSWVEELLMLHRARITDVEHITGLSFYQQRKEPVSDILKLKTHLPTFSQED

[6] = Solubility in water (solution preparation); assay type: physicochemical
human ENPP1 [7] = target: T1, human ENPP1; test: biochemical
human ENPP1 [8] = target: T1, human ENPP1; test: Fluorescent determination of IC50/Ki using Kyoto Green (ATP hydrolysis)
human ENPP1 [9] = target: T1, human ENPP1; test: Bioluminescent assay of ENPP1 using luciferin/luciferase ATP assay kit
[10] = pH-dependent stability of quercetin in aqueous solution (UV-visible spectrum); assay type: physicochemical; conditions: 50 mM HEPES buffer (pH 7.4), 60 min, 7 µM
Method: page 8: 0 → 60 min 0 → 60 min Figure S7.pH -dependent stability of quercetin in aqueous solution. Time course of UV- visible spectrum (JASCO […], Japan) of quercetin ( 7 μ M) in50 m M HEPES buffer (pH 7.4) (above) or 50 mM borate buffer (pH 9.0) (below) . Inset: Absorbance at λ ma x ( 403 nm). Ratio of ethanol : buffer = 1 : 10 v/v. The buffer contain ed 10 mM NaCl, 1 mM MgCl 2, and 0.02 mM Zn(NO3)2. Measurements were performed at 25± 2 °C. S8 […]

human ENPP1 [11] = target: T1, human ENPP1; test: Colorimetric UV-visible assay of ENPP1 using p-Nph-5′-TMP as chromogenic substrate; assay type: biochemical; set-up: purchased R&D systems (Minneapolis, USA)
human ENPP1 [12] = target: T1, human ENPP1; set-up: purchased R&D systems (Minneapolis, USA); method as in PMID 28011303; conditions: substrate of human ENPP1, pH 9.0; cited from earlier work
[13] = Kyoto Green fluorescence method, ATP, pH 7.4

SMILES: Cc1nc2ncnn2c(N(C)C)c1Cc1cccc(N)c1 [Compound 1]
Ki (human soluble ENPP1 [1]): 480 nM
Ki (human soluble ENPP1 [2]): 2000 nM

SMILES: COc1ccc(NC(=O)CSc2nc3c(N)ncnc3[nH]2)cc1OC [Compound 3]
Ki (human soluble ENPP1 [3]): 18000 nM
Ki (human soluble ENPP1 [1]): 5 nM

SMILES: COc1cccc2c(NCc3ccc(P(=O)(O)O)cc3)c(C#N)cnc12 [Compound 5]
Ki (human soluble ENPP1 [4]; pH 7.4): < 2 nM

SMILES: CN1Cc2c(ncnc2N2CCC(C)(CNS(N)(=O)=O)CC2)NC1=O [Compound 6]
IC50 (human soluble ENPP1 [4]; pH 8.5, read-out: IC50 (shown in the Ki column)): 3.7 nM

ENPP1 inhibition in Kyoto Green screening (in words) (human ENPP1 [5]): ineffective as inhibitors
SMILES: O=c1c(O)c(-c2ccc(O)cc2)oc2cc(O)cc(O)c12 [Kaempferol, 3, 4′,5,7 -tetrahydroxyflavone]

ENPP1 inhibition in Kyoto Green screening (in words) (human ENPP1 [5]): ineffective as inhibitors
SMILES: O=c1c(O)c(-c2ccc(O)cc2O)oc2cc(O)cc(O)c12 [Morin, 3,5,7,2′,4′-pentahydroxyflavone]

SMILES: O=c1c(O)c(-c2cc(O)c(O)c(O)c2)oc2cc(O)cc(O)c12 [Myricetin, 3,5,7,3′,4′,5′-hexahydroxyflavone]
IC50 (human soluble ENPP1 [1]; pH 7.4): 432 nM
IC50 (human soluble ENPP1 [1]; pH 9.5): 414 nM

solubility in water [6]: poor solubility in water
Ki (human ENPP1 [7]): ~4 nM
IC50 (human ENPP1 [8]): 4.5 ± 0.9 nM
inhibitory efficiency of quercetin relative to myricetin (human ENPP1 [8]; [13]): ~ 8 folds
inhibitory efficiency of quercetin relative to suramin (human ENPP1 [8]; [13]): ~ 188 folds
reduction of Kyoto Green fluorescence change (F/F0-1) compared to the control group without an inhibitor (human ENPP1 [5]; 10 μM compound): over 90%
IC50 (human ENPP1 [9]): 5.5 ± 0.6 nM
stability in buffer [10]: highly stable
Ki by colorimetric method relative to Ki by Kyoto Green and commercial ATP assays (human ENPP1 [11]; p-Nph-5′-TMP versus ATP as substrate): approximately 40 fold
Ki (human ENPP1 [11]; substrate p-Nph-5′-TMP, Colorimetry (p-nitrophenol), pH 7.4, Cheng-Prusoff, KM 222 µM): 159 ± 73 nM
SMILES: O=c1c(O)c(-c2ccc(O)c(O)c2)oc2cc(O)cc(O)c12 [Quercetin, 3,5,7,3′,4′-pentahydroxyflavone]
ENPP1 inhibition at pH 9.0 (in words) (human ENPP1 [11]; 700 nM quercetin, 0.1 mM p-Nph-5′-TMP, 50 mM borate buffer pH 9.0, 6.5 nM ENPP1, time course 60 min): capable of inhibiting ENPP1 at pH 9.0, but this effect was observed only for the first 10 min

ENPP1 inhibition in Kyoto Green screening (in words) (human ENPP1 [5]): did not inhibit ENPP1
ENPP1 inhibition in Kyoto Green screening (in words) (human ENPP1 [5]; listed as quercetin glucoside): ineffective as inhibitors
SMILES: O=c1c(O[C@@H]2O[C@H](CO)[C@@H](O)[C@H](O)[C@H]2O)c(-c2ccc(O)c(O)c2)oc2cc(O)cc(O)c12 [Quercetin-3-glucoside, quercetin-3-glucoside]

SMILES: Cc1cn([C@H]2C[C@H](O)[C@@H](COP(=O)(O)Oc3ccc([N+](=O)[O-])cc3)O2)c(=O)[nH]c1=O [p-Nph-5′-TMP, p-nitrophenyl 5′-thymidine monophosphate]
Km (human ENPP1 [12]): 222 µM
